Reference: PMC6104039 (Nature Communications, 2018)
Several values for one entry are separate records, joined by “and”; a condition that tells them apart may be missing. Equal entries are not always repeated.

Tested on: cerebellum
Assay: Ceramide, SM and HexCer levels in cerebellum;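 on Cer 18:1/18:0 content of cerebellum: pmol per mg cerebellum tissue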;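 on Cer 18:1/24:0 content of cerebellum: pmol per mg cerebellum tissue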;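 on Cer 18:1/24:1 content of cerebellum: pmol per mg cerebellum tissue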;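 on Cer 18:2/18:0 content of cerebellum: pmol per mg cerebellum tissue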;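 on HexCer 18:1 content of cerebellum: pmol per mg cerebellum tissue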;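 on HexCer 20:1 content of cerebellum: pmol per mg cerebellum tissue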;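 on HexCer 22:1 content of cerebellum: pmol per mg cerebellum tissue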;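 on HexCer 24:0 content of cerebellum: pmol per mg cerebellum tissue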;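 on SM 32:1 content of cerebellum: pmol per mg cerebellum tissue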;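 on SM 34:2 content of cerebellum: pmol per mg cerebellum tissue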;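 on SM 36:1 content of cerebellum: pmol per mg cerebellum tissue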;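 on SM 36:2 content of cerebellum: pmol per mg cerebellum tissue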;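 on SM 40:1 content of cerebellum: pmol per mg cerebellum tissue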;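 on SM 40:2 content of cerebellum: pmol per mg cerebellum tissue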;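 on SM 42:1 content of cerebellum: pmol per mg cerebellum tissue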;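 on SM 42:2 content of cerebellum: pmol per mg cerebellum tissue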
Assay type: in vivo, mice
Details: individual mice, raw data for Supplementary Figure 7
Excerpt: Supplementary Figure 7. […] Ceramide, SM, and HexCer […]
levels in the cerebellum of vehicle- or P053-treated mice on a chow or HFD. N = 10 mice per group, except for chow vehicle group (n = 9). Mean ± SEM shown. No lipids were […]
comparisons. C18:0 HexCer was 45% lower in the P053-treated compared to the vehicle-treated HFD group (unadjusted P value = 0.02; adjusted value P = 0.16). Raw data for these figures is provided in Supplementary Data File 1.

Structure (SMILES): C[C@@](N)(CO)CCc1ccc(OCc2ccc(Cl)c(Cl)c2)cc1 [P053, (S)-2-amino-4-(4-(3,4-dichlorobenzyloxy)phenyl)-2-methylbutan-1-ol]
- Cer 18:1/16:0 content of cerebellum (Chow + P053): 3.617 and 2.396 and 2.239 and 1.878 and 1.763 and 7.091 and 4.235 and 4.186 and 2.745 and 2.729
- Cer 18:1/18:0 content of cerebellum (Chow + P053): 141.97 and 85.5119 and 108.595 and 104.792 and 97.4561 and 431.392 and 196.381 and 275.197 and 135.779 and 146.615
- Cer 18:1/20:0 content of cerebellum (Chow + P053): 10.8793 and 8.155 and 10.4755 and 10.5072 and 6.176 and 36.1314 and 20.5959 and 26.7359 and 12.6268 and 16.6128
- Cer 18:1/22:0 content of cerebellum (Chow + P053): 14.5276 and 15.0246 and 22.6132 and 25.2761 and 10.65 and 51.7937 and 37.5604 and 49.7318 and 29.1858 and 28.3511
- Cer 18:1/24:0 content of cerebellum (Chow + P053): 25.164 and 39.1513 and 61.4338 and 64.1688 and 24.2127 and 137.911 and 88.346 and 158.631 and 89.2495 and 92.5091
- Cer 18:1/24:1 content of cerebellum (Chow + P053): 194.92 and 106.297 and 150.541 and 182.076 and 61.3337 and 311.08 and 260.185 and 253.268 and 147.127 and 119.244
- Cer 18:2/18:0 content of cerebellum (Chow + P053): 6.1678 and 7.469 and 7.847 and 9.952 and 5.015 and 15.2517 and 13.7543 and 19.4608 and 12.754 and 10.8001
- HexCer 16:0 content of cerebellum (Chow + P053): 2.618 and 11.905 and 12.0787 and 17.3566 and 8.981 and 4.913 and 10.616 and 11.083 and 11.1713 and 10.2043
- HexCer 18:0 content of cerebellum (Chow + P053): 28.8093 and 286.922 and 231.007 and 375.961 and 165.705 and 81.8257 and 140.616 and 234.577 and 281.805 and 232.737
- HexCer 18:1 content of cerebellum (Chow + P053): 4.066 and 35.919 and 27.4449 and 39.8082 and 28.3147 and 12.0017 and 18.6127 and 33.0051 and 39.5714 and 38.2232
- HexCer 20:0 content of cerebellum (Chow + P053): 5.379 and 62.6592 and 42.0891 and 61.8563 and 40.4642 and 16.7817 and 19.6222 and 44.5602 and 56.0811 and 52.6344
- HexCer 20:1 content of cerebellum (Chow + P053): 0.8503 and 3.88 and 2.4108 and 3.569 and 3.668 and 1.176 and 1.073 and 2.879 and 4.092 and 4.073
- HexCer 22:0 content of cerebellum (Chow + P053): 103.858 and 933.202 and 709.42 and 853.076 and 744.844 and 421.086 and 403.774 and 821.636 and 996.669 and 1011.42
- HexCer 22:1 content of cerebellum (Chow + P053): 67.4582 and 171.007 and 113.764 and 201.906 and 106.093 and 35.9387 and 77.6418 and 92.6997 and 107.257 and 90.5981
- HexCer 24:0 content of cerebellum (Chow + P053): 564.043 and 4618.59 and 3773.48 and 4286.71 and 3653.78 and 2395.46 and 2157.01 and 3975.05 and 5039.63 and 4758.34
- HexCer 24:1 content of cerebellum (Chow + P053): 3233.35 and 7019.2 and 5377.98 and 7770.21 and 6449.16 and 3511.89 and 4048.72 and 5184.76 and 6290.34 and 5656.27
- SM 32:1 content of cerebellum (Chow + P053): 7.744 and 10.8885 and 9.082 and 12.3443 and 9.858 and 7.664 and 8.692 and 8.551 and 8.187 and 8.4615
- SM 34:1 content of cerebellum (Chow + P053): 82.5407 and 146.305 and 94.5019 and 129.483 and 151.913 and 73.8551 and 80.0167 and 90.7654 and 102.782 and 113.569
- SM 34:2 content of cerebellum (Chow + P053): 7.207 and 9.9108 and 8.648 and 11.4512 and 8.062 and 5.446 and 4.538 and 7.185 and 8.297 and 8.329
- SM 36:1 content of cerebellum (Chow + P053): 194.844 and 464.875 and 291.749 and 380.257 and 596.135 and 225.303 and 199.676 and 294.675 and 315.392 and 396.468
- SM 36:2 content of cerebellum (Chow + P053): 59.5005 and 77.3429 and 59.1592 and 95.459 and 61.3204 and 42.7823 and 27.3474 and 61.4896 and 55.0172 and 56.8047
- SM 38:1 content of cerebellum (Chow + P053): 38.445 and 174.02 and 119.141 and 145.805 and 204.374 and 106.701 and 86.1831 and 141.777 and 157.803 and 199.243
- SM 38:2 content of cerebellum (Chow + P053): 7.207 and 11.8634 and 6.682 and 10.3765 and 10.2552 and 3.609 and 2.903 and 5.065 and 7.083 and 7.8
- SM 40:1 content of cerebellum (Chow + P053): 51.2464 and 304.001 and 220.117 and 327.562 and 242.07 and 125.331 and 158.353 and 223.684 and 258.853 and 295.067
- SM 40:2 content of cerebellum (Chow + P053): 51.3559 and 98.4003 and 64.6125 and 113.428 and 67.3016 and 27.1328 and 51.0354 and 51.6641 and 60.1105 and 65.3939
- SM 42:1 content of cerebellum (Chow + P053): 47.6271 and 371.292 and 288.623 and 388.513 and 255.841 and 158.489 and 203.273 and 296.49 and 332.331 and 358.331
- SM 42:2 content of cerebellum (Chow + P053): 660.19 and 1132.13 and 807.257 and 1283.01 and 802.501 and 434.477 and 634.337 and 659.388 and 719.281 and 714.687
- Cer 18:1/16:0 content of cerebellum (HFD + P053): 2.762 and 1.437 and 5.744 and 2.262 and 3.928 and 1.548 and 1.88 and 7.07 and 1.652 and 5.347
- Cer 18:1/18:0 content of cerebellum (HFD + P053): 128.546 and 82.2707 and 288.623 and 116.318 and 172.743 and 86.572 and 112.409 and 311.979 and 100.825 and 239.53
- Cer 18:1/20:0 content of cerebellum (HFD + P053): 9.681 and 8.421 and 28.463 and 10.3564 and 18.7569 and 5.821 and 8.037 and 34.6254 and 7.548 and 24.475
- Cer 18:1/22:0 content of cerebellum (HFD + P053): 15.9533 and 14.996 and 57.2919 and 21.4543 and 38.4094 and 10.5899 and 9.986 and 74.6469 and 9.154 and 46.3627
- Cer 18:1/24:0 content of cerebellum (HFD + P053): 36.0277 and 35.1841 and 132.359 and 47.5021 and 88.9579 and 25.0017 and 22.1183 and 201.705 and 15.8687 and 131.28
